Data reported in patent US4452788A, “Substituted 8-phenylxanthines” (Warner-Lambert Company, priority 1982, dated 1984).
Structures can show the parent of a compound that is named as a salt.

Molecular target: adenosine receptor
Experiment: adenosine receptor antagonism assayed by the procedure described in Proc. Natl. Acad. Sci. USA, 77, 5547 (1980)
Format: binding
Details: procedure of Proc. Natl. Acad. Sci. USA, 77, 5547 (1980)
From the text: The relevant teachings of this manuscript are incorporated herein by reference.

Row | SMILES | IC50
1 | CCn1c(=O)c2[nH]c(-c3cccc(S(=O)(=O)NCCN(C)C)c3)nc2n(CC)c1=O [C2 H5, C2 H5, H, 3-SO2 NH(CH2)2 N(CH3)2, 3-(1,3-Diethyl-2,3,6,7-tetrahydro-2,6,-dioxo-1H-purin-8-yl)-N-[2-(dimethylamino)ethyl]benzenesulfonamide] | 550 nM
2 | CCn1c(=O)c2[nH]c(-c3cccc(S(=O)(=O)O)c3)nc2n(CC)c1=O [C2 H5, C2 H5, H, 3-SO3 K, 3-(1,3-diethyl-2,3,6,7-tetrahydro-2,6-dioxo-1H-purin-8-yl)benzenesulfonic acid potassium salt] | 37000 nM
3 | CCn1c(=O)c2[nH]c(-c3ccc(S(=O)(=O)N4CCN(C)CC4)cc3)nc2n(CC)c1=O [C2 H5, C2 H5, H, 4-SO2 N(CH2 CH2)2 NCH3, 1-[[4-(1,3-Diethyl-2,3,6,7-tetrahydro-2,6,-dioxo-1H-purin-8-yl)phenyl]sulfonyl]-4-methyl-piperazine] | 150 nM
4 | CCn1c(=O)c2[nH]c(-c3ccc(S(=O)(=O)N4CCOCC4)cc3)nc2n(CC)c1=O [C2 H5, C2 H5, H, 4-SO2 N(CH2 CH2)2 O, 4-[[4-(1,3-Diethyl-2,3,6,7-tetrahydro-2,6-dioxo-1H-purin-8-yl)phenyl]sulfonyl]morpholine] | 300 nM
5 | CCn1c(=O)c2[nH]c(-c3ccc(S(N)(=O)=O)cc3)nc2n(CC)c1=O [C2 H5, C2 H5, H, 4-SO2 NH2, 4-(1,3-diethyl-2,3,6,7-tetrahydro-2,6-dioxo-1H-purin-8-yl)benzenesulfonamide] | 50 nM
6 | CCn1c(=O)c2[nH]c(-c3ccc(S(=O)(=O)NCCCN(C)C)cc3)nc2n(CC)c1=O [C2 H5, C2 H5, H, 4-SO2 NH(CH2)3 N(CH3)2, 4-(1,3-Diethyl-2,3,6,7-tetrahydro-2,6-dioxo-1H-purin-8-yl)-N-[3-(dimethylamino)propyl]benzenesulfonamide] | 70 nM
7 | CCn1c(=O)c2[nH]c(-c3ccc(S(=O)(=O)O)cc3)nc2n(CC)c1=O [C2 H5, C2 H5, H, 4-SO3 K] | 4900 nM
8 | CCCn1c(=O)c2[nH]c(-c3ccc(S(=O)(=O)NCCN(C)C)cc3)nc2n(CCC)c1=O [N-[2-(Dimethylamino)ethyl]-4-(2,3,6,7-tetrahydro-2,6-dioxo-1,3-dipropyl-1H-purin-8-yl)benzenesulfonamide] | 10 nM
9 | CCCn1c(=O)c2[nH]c(-c3ccc(S(=O)(=O)O)cc3)nc2n(CCC)c1=O [n-C3 H7, n-C3 H7, H, 4-SO3 K, 4-(1,3-dipropyl-2,3,6,7-tetrahydro-2,6-dioxo-1H-purin-8-yl)benzenesulfonic acid potassium salt] | 100 nM

Molecular target: adenosine receptor
Experiment: not given
Details: *Results reported in Proc. Natl. Acad. Sci. USA, 77, 5547(1980); cited from earlier work

Row | SMILES | IC50
10 | Cn1c(=O)c2[nH]c(-c3ccc(S(=O)(=O)O)cc3)nc2n(C)c1=O [CH3, CH3, H, 4-SO3 H, 4-(1,3-dimethyl-2,3,6,7-tetrahydro-2,6-dioxo-1H-purin-8-yl)benzenesulfonicacid] | 20000 nM
11 | Cn1c(=O)c2[nH]cnc2n(C)c1=O [theophylline] | 15000 nM
